In patent US10494384B2, “Urea peptoid boric acid compound, pharmaceutical composition thereof, preparation method therefor, and uses thereof” (Peking University, priority 2015, dated 2019):
Like-named read-outs stand apart in the source and are kept apart here.

Tests used:
[1] = tested on: Hela, human cervical carcinoma; experiment: preliminary anti-tumor screening in vitro, MTT method; format: cell-based; details: read-out: inhibition rates (%) Hela
In short: (§1)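 Inhibition rates measured at 0.1, 1 or 10 μM compound; cell growth read by MTT for Hela, SRB for BGC-823, MCF-7 and A549.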

[2] = tested on: MCF-7, breast cancer; experiment: preliminary anti-tumor screening in vitro, SRB method; format: cell-based; details: Homo sapiens, read-out: inhibition rates (%) MCF-7; for inhibition at 0.1 µM: MCF7, 0.1 μM; for inhibition at 1 µM: MCF7, 1 μM; for inhibition at 10 µM: MCF7, 10 μM
In short: as §1

[3] = tested on: BGC-823, liver cancer; experiment: as above; format: cell-based; details: Homo sapiens, read-out: inhibition rates (%) BGC-823
In short: as §1

[4] = tested on: A549, human lung cancer; experiment: as above; format: cell-based; details: read-out: inhibition rates (%) A549
In short: as §1

[5] = molecular target: T1, 20S proteasome extracted from rat liver (PGPH) (Rattus norvegicus, UniProt P28073+Q9JHW0); experiment: inhibition of 20S proteasome, PGPH activity (fluorescent peptide); format: biochemical; details: for inhibition at 0.2 µM / inhibition at 2 µM / inhibition at 20 µM: rat liver 20S proteasome, 37° C., 1 h, read-out: inhibition rates (%) PGPH
T1 construct: 20S proteasome extracted from rat liver; from tissue; host or cells: rat liver
Experimental: (§2) 1 μg of 20S proteasome extracted from rat liver was incubated with a 100 μL solution containing various concentrations of the present compounds, 50 μM fluorescent peptides and 20 mM Tris-HCl at 37° C. for 1 h, respectively. […] 0.1% DMSO was used as a solvent control. Compared with the fluorescence of solvent control, an inhibition rate or IC50 value was calculated.

[6] = molecular target: T2, 20S proteasome extracted from rat liver (CT-L) (Rattus norvegicus, UniProt P18421+P28075); experiment: inhibition of 20S proteasome, CT-L activity (fluorescent peptide); format: biochemical; details: for inhibition at 0.2 µM / inhibition at 2 µM / inhibition at 20 µM: rat liver 20S proteasome, 37° C., 1 h, read-out: inhibition rates (%) CT-L
T2 construct: 20S proteasome extracted from rat liver; from tissue; host or cells: rat liver
Experimental: as §2

[7] = molecular target: T3, 20S proteasome extracted from rat liver (T-L) (Rattus norvegicus, UniProt P40112+Q9JHW0); experiment: inhibition of 20S proteasome, T-L activity (fluorescent peptide); format: biochemical; details: for inhibition at 0.2 µM / inhibition at 2 µM / inhibition at 20 µM: rat liver 20S proteasome, 37° C., 1 h, read-out: inhibition rates (%) T-L
T3 construct: 20S proteasome extracted from rat liver; from tissue; host or cells: rat liver
Experimental: as §2

[8] = tested on: SW1990; experiment: anti-tumor activity in vitro (IC50), MTT; format: cell-based; details: Homo sapiens, 72 h
Experimental: (§3) Cancer cells were cultured in vitro. When cell growth reached logarithmic phase, the cells were collected and centrifuged at 1000 rpm for 5 min, before the supernate was removed and the cells were suspended in a moderate amount of medium, and then the concentration of cell was adjusted to 3.5×10^4/mL. The cell suspension was added into a 96-well plate with 100 μL per well and cultured in a cell incubator (37° C., 5% CO2) for 24 h. Then test drugs of different end concentrations were added, and the negative control group was added DMSO (end concentration was 0.5%), while each group afforded three repetitive holes. After cultivation for another 72 h in the cell incubator, a solution containing 5 mg/ml MTT (20 μL) was added into each well and the 96-well plate was placed at 37° C. for 3 h. To each well was added 150 μL DMSO, after oscillation in a shaking table for 5 min, the optical density (OD) values at 492 nm/620 nm were measured. IC50 values were calculated by Prism Graphpad statistical software.

[9] = tested on: MDA-MB-231; experiment: anti-tumor activity in vitro (IC50), MTT; format: cell-based; details: Homo sapiens, 72 h
Experimental: as §3

[10] = tested on: MKN45; experiment: anti-tumor activity in vitro (IC50), MTT; format: cell-based; details: Homo sapiens, MKN-45, 72 h
Experimental: as §3

[11] = tested on: A549; experiment: anti-tumor activity in vitro (IC50), MTT; format: cell-based; details: Homo sapiens, 72 h
Experimental: as §3

[12] = tested on: Hela; experiment: anti-tumor activity in vitro (IC50), MTT; format: cell-based; details: Homo sapiens, 72 h
Experimental: as §3

[13] = tested on: HepG2 liver cancer cells; experiment: anti-tumor activity in vitro (IC50), MTT; format: cell-based; details: Homo sapiens, 72 h
Experimental: as §3

[14] = tested on: BEL7404; experiment: anti-tumor activity in vitro (IC50), MTT; format: cell-based; details: Homo sapiens, BEL-7404, 72 h
Experimental: as §3

[15] = tested on: MGC803 stomach cancer cells; experiment: anti-tumor activity in vitro (IC50), MTT; format: cell-based; details: Homo sapiens, MGC-803, 72 h
Experimental: as §3

[16] = tested on: HCT116; experiment: anti-tumor activity in vitro (IC50), MTT; format: cell-based; details: Homo sapiens, HCT-116, 72 h
Experimental: as §3

[17] = tested on: SKOV3; experiment: anti-tumor activity in vitro (IC50), MTT; format: cell-based; details: Homo sapiens, SK-OV-3, 72 h
Experimental: as §3

[18] = tested on: HL-60; experiment: anti-tumor activity in vitro (IC50), MTT; format: cell-based; details: Homo sapiens, 72 h
Experimental: as §3

[19] = tested on: 95D; experiment: anti-tumor activity in vitro (IC50), MTT; format: cell-based; details: Homo sapiens, 72 h
Experimental: as §3

[20] = liver cancer cells, read-out: IC50 (μM) HepG2
[21] = stomach cancer cells, MTT, read-out: IC50 (μM) MGC803

| SMILES | inhibition at 0.2 µM [5] [%] | inhibition at 2 µM [5] [%] | inhibition at 20 µM [5] [%] | inhibition at 0.1 µM [1] [%] | inhibition at 1 µM [1] [%] | inhibition at 10 µM [1] [%] | inhibition at 0.1 µM [2] [%] | inhibition at 1 µM [2] [%] | inhibition at 10 µM [2] [%] | inhibition at 0.1 µM [3] [%] | inhibition at 1 µM [3] [%] | inhibition at 10 µM [3] [%] | inhibition at 0.1 µM [4] [%] | inhibition at 1 µM [4] [%] | inhibition at 10 µM [4] [%] | IC50 [12] [nM] | IC50 ([13]; read-out: IC50 HepG2) [µM] | IC50 [13, 20] [µM] | IC50 ([15]; MTT, read-out: IC50 MGC803) [µM] | IC50 [15, 21] [µM] | also measured |
| --- | --- | --- | --- | --- | --- | --- | --- | --- | --- | --- | --- | --- | --- | --- | --- | --- | --- | --- | --- | --- | --- |
| CC(C)C[C@H](NC(=O)[C@H](Cc1ccccc1)NC(=O)N1CCc2ccccc2C1)B(O)O [Example 28, N-L-phenylalanyl-L-leucine borate-N′-1,2,3,4-tetrahydroisoquinoline-urea] |  |  |  |  |  |  |  |  |  |  |  |  |  |  |  | 532 | 0.00838 | 0.0194 | 0.00498 | 0.00396 | IC50 [5]: 20 nM; IC50 [7]: 2380 nM |
| CC(C)C[C@H](NC(=O)[C@H](Cc1ccccc1)NC(=O)NCc1ccc(F)c(F)c1)B(O)O [Example 35, N-L-phenylalanyl-L-leucine borate-N′-3,4-difluoro-benzylamine-urea] |  |  |  |  |  |  |  |  |  |  |  |  |  |  |  | 255 | 0.019 | 0.0388 | 0.0167 | 0.0067 | IC50 [5]: 110 nM; IC50 [6]: 2 nM; IC50 [7]: 340 nM |
| CC(C)C[C@H](NC(=O)[C@H](Cc1ccccc1)NC(=O)c1cnccn1)B(O)O [positive control, bortezomib, reference compound] |  |  |  | 41.6 | 43.2 | 47.3 | 27.6 | 32.8 | 40.7 | 41 | 43.6 | 46.8 | 59.9 | 63.8 | 66.1 | 224 | 0.00161 | 0.0366 | 0.00654 | 0.00578 | IC50 ([15]; MGC80-3, MTT, value ± spread, read-out: IC50 (μM), growth of stomach cancer cells (MGC80-3)): 0.0057 ± 0.001 µM; IC50 [18]: 7.6 nM |

Now from value to molecule, other results behind:

| inhibition at 0.2 µM [5] [%] | inhibition at 2 µM [5] [%] | inhibition at 20 µM [5] [%] | SMILES | inhibition at 0.1 µM [1] [%] | inhibition at 1 µM [1] [%] | inhibition at 10 µM [1] [%] | inhibition at 0.1 µM [2] [%] | inhibition at 1 µM [2] [%] | inhibition at 10 µM [2] [%] | inhibition at 0.1 µM [3] [%] | inhibition at 1 µM [3] [%] | inhibition at 10 µM [3] [%] | inhibition at 0.1 µM [4] [%] | inhibition at 1 µM [4] [%] | inhibition at 10 µM [4] [%] | IC50 [12] [nM] | IC50 ([13]; read-out: IC50 HepG2) [µM] | IC50 [13, 20] [µM] | IC50 ([15]; MTT, read-out: IC50 MGC803) [µM] | IC50 [15, 21] [µM] | also measured |
| --- | --- | --- | --- | --- | --- | --- | --- | --- | --- | --- | --- | --- | --- | --- | --- | --- | --- | --- | --- | --- | --- |
| 1.67 | 6.26 | 34.1 | COc1ccc(NC(=O)[C@H](Cc2ccccc2)NC(=O)N[C@@H](CC(C)C)B2OC3C[C@H]4C[C@H](C4(C)C)[C@@]3(C)O2)cc1 (stereo partly drawn) [Example 9, N-L-leucine borate pinanediol ester-N′-(p-methoxy-phenylcarbamoyl)-L-phenylalanine-urea] | 11.8 | 14.3 | 32.1 | 6.66 | 11.7 | 13.8 | 8.33 | 7.84 | 14.7 | 4.05 | 10.3 | 36.2 |  |  |  |  |  | melting point: 78 to 80 °C; inhibition at 0.2 µM [6]: -12.2%; inhibition at 2 µM [6]: 44.9%; inhibition at 20 µM [6]: 76.8%; inhibition at 0.2 µM [7]: 1.54%; inhibition at 2 µM [7]: 9%; inhibition at 20 µM [7]: 21.5% |
| 16.9 | 82.3 | 97.2 | COc1ccc(OC)c(CNC(=O)N[C@@H](Cc2ccccc2)C(=O)N[C@@H](CC(C)C)B2OC3CC4CC(C4(C)C)[C@]3(C)O2)c1 (stereo partly drawn) [Example 19, N-L-phenylalanyl-L-leucine borate pinanediol ester-N′-(2,5-dimethoxy-benzylamine)-urea] | 39.8 | 44 | 55 | 23.4 | 38.1 | 61.7 | 43.7 | 46.6 | 57.2 | 53.1 | 65.6 | 76.1 |  |  |  |  |  | melting point: 88 to 90 °C; inhibition at 0.2 µM [6]: 91.7%; inhibition at 2 µM [6]: 97.3%; inhibition at 20 µM [6]: 98.3%; inhibition at 0.2 µM [7]: 18.2%; inhibition at 2 µM [7]: 69.1%; inhibition at 20 µM [7]: 90.7% |
| -23 | -26.6 | -28.9 | CC(C)C[C@H](NC(=O)[C@H](Cc1ccccc1)NC(=O)NCc1cccc(Cl)c1Cl)B(O)O [Example 20, N-L-phenylalanyl-L-leucine borate-N′-(2,3-dichloro-benzylamine)-urea] | 17.4 | 42.5 | 75.7 | 32.2 | 42.2 | 45.5 | 50 | 47.1 | 50.2 | 65 | 68.2 | 69.3 | 117 | 0.026 | 0.0378 | 0.0175 | 0.00733 | IC50 [8]: 80.3 nM; IC50 [9]: 25.1 nM; IC50 [10]: 20.1 nM; IC50 [11]: 1020 nM; IC50 [14]: 42.2 nM; IC50 [16]: 23 nM; IC50 [17]: 46.3 nM; IC50 [18]: 27 nM; IC50 [19]: 41 nM; melting point: 119 to 122 °C; inhibition at 0.2 µM [6]: 91.9%; inhibition at 2 µM [6]: 96.5%; inhibition at 20 µM [6]: 97%; inhibition at 0.2 µM [7]: 35.6%; inhibition at 2 µM [7]: 83.7%; inhibition at 20 µM [7]: 92.6% |
